How the values were obtained:
[1] = system: Puccinia recondita f. Sp. Tritici; assay: Puccinia recondita f. sp. tritici / wheat / leaf disc curative (brown rust); format: in vivo; details: foliar, 200 ppm in the applied formulation, wheat leaf segments cv. Kanzler, compound applied 1 day after inoculation, vs untreated, 6 to 8 days after application, read-out: disease control
Protocol: (§1) Leaf disks or leaf segments of various plant species are cut from plants grown in a greenhouse. The cut leaf disks or segments are placed in multiwell plates (24-well format) onto water agar. The leaf disks are sprayed with a test solution before (preventative) or after (curative) inoculation. Compounds to be tested are prepared as DMSO solutions (max. 10 mg/ml) which are diluted to the appropriate concentration with 0.025% Tween20 just before spraying. The inoculated leaf disks or segments are incubated under defined conditions (temperature, relative humidity, light, etc.) according to the respective test system. A single evaluation of disease level is carried out 3 to 14 days after inoculation, depending on the pathosystem. Percent disease control relative to the untreated check leaf disks or segments is then calculated.
Example 2: Fungicidal Activity Against Puccinia recondita f. sp. tritici/Wheat/Leaf Disc Curative (Brown Rust)
Wheat leaf segments cv. Kanzler are placed on agar in multiwell plates (24-well format). The leaf segments are then inoculated with a spore suspension of the fungus. Plates were stored in darkness at 19° C. and 75% relative humidity. The Formulated test compound diluted in water was applied 1 day after inoculation. The leaf segments were incubated at 19° C. and 75% relative humidity under a light regime of 12 hours light/12 hours darkness in a climate cabinet and the activity of a compound was assessed as percent disease control compared to untreated when an appropriate level of disease damage appears in untreated check leaf segments (6 to 8 days after application).
(§2) The following compounds at 200 ppm in the applied Formulation give at least 80% disease control in this test when compared to untreated control leaf disks under the same conditions, which show extensive disease development.

[2] = system: Phakopsora pachyrhizi; assay: Phakopsora pachyrhizi / soybean / leaf disc preventative (Asian soybean rust); format: in vivo; details: foliar, 200 ppm in the applied formulation, soybean leaf disks, inoculated one day after application, vs untreated, 12 to 14 days after application, read-out: disease control
Protocol: as §1
Example 3: Fungicidal Activity Against Phakopsora pachyrhizi/Soybean/Leaf Disc Preventative (Asian Soybean Rust)
Soybean leaf disks are placed on water agar in multiwell plates (24-well format) and sprayed with the Formulated test compound diluted in water. One day after application leaf discs are inoculated by spraying a spore suspension on the lower leaf surface. After an incubation period in a climate cabinet of 24-36 hours in darkness at 20° C. and 75% rh leaf disc are kept at 20° C. with 12 h light/day and 75% rh. The activity of a compound is assessed as percent disease control compared to untreated when an appropriate level of disease damage appears in untreated check leaf disks (12 to 14 days after application).
as §2

[3] = system: Glomerella lacenarium (Colletotrichum lacenarium); assay: Glomerella lacenarium (Colletotrichum lacenarium) liquid culture / cucumber / preventative (anthracnose); format: cell-based; details: 20 ppm, liquid culture in PDB, 24° C., inhibition of growth measured photometrically 3 to 4 days after application, vs untreated, read-out: disease control
In short: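 Cryopreserved conidia in potato dextrose broth were added to test compound in a 96-well microtiter plate and incubated at 24 °C. Growth inhibition read photometrically 3–4 days after application, as percent activity versus untreated check.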

[4] = system: Puccinia recondita f. Sp. Tritici; assay: Puccinia recondita f. sp. tritici / wheat / leaf disc preventative (brown rust); format: in vivo; details: foliar, 200 ppm in the applied formulation, wheat leaf segments cv. Kanzler, inoculated 1 day after application, vs untreated, 7 to 9 days after application, read-out: disease control
In short: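 Preventative leaf-segment test on wheat cv. Kanzler: formulated compound diluted in water was sprayed onto segments on agar, with spore inoculation 1 day later. Incubated at 19° C, 75% rh, 12 h light/12 h dark; percent disease control versus untreated scored 7 to 9 days after application.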

O=C(CSc1ccccc1)Nc1ccc(-c2noc(C(F)(F)F)n2)nc1 [Compound 1.55, 2-phenylsulfanyl-N-[6-[5-(trifluoromethyl)-1,2,4-oxadiazol-3-yl]-3-pyridyl]acetamide]
≥ 80%: pest or weed control at 200 ppm [1] | pest or weed control at 200 ppm [2] | inhibition of growth at 20 ppm [3] | pest or weed control at 200 ppm [4]

COC(=O)C(C)(C)CC(=O)Nc1ccc(-c2noc(C(F)(F)F)n2)cc1 [Compound 1.73, methyl 2,2-dimethyl-4-oxo-4-[4-[5-(trifluoromethyl)-1,2,4-oxadiazol-3-yl]anilino]butanoate]
≥ 80%: pest or weed control at 200 ppm [1] | pest or weed control at 200 ppm [2] | inhibition of growth at 20 ppm [3] | pest or weed control at 200 ppm [4]

CC(C)C(=O)Nc1ccc(-c2noc(C(F)(F)F)n2)cc1 [Compound 1.74, 2-methyl-N-[4-[5-(trifluoromethyl)-1,2,4-oxadiazol-3-yl]phenyl] propanamide]
≥ 80%: pest or weed control at 200 ppm [1] | pest or weed control at 200 ppm [2] | inhibition of growth at 20 ppm [3] | pest or weed control at 200 ppm [4]

CCC(C)C(=O)Nc1ccc(-c2noc(C(F)(F)F)n2)cc1 (stereo not shown) [Compound 1.99, 2-methyl-N-[4-[5-(trifluoromethyl)-1,2,4-oxadiazol-3-yl]phenyl]butanamide]
≥ 80%: pest or weed control at 200 ppm [1] | pest or weed control at 200 ppm [2] | inhibition of growth at 20 ppm [3] | pest or weed control at 200 ppm [4]

CC1(C(=O)Nc2ccc(-c3noc(C(F)(F)F)n3)cc2)COC1 [Compound 1.102, 3-methyl-N-[4-[5-(trifluoromethyl)-1,2,4-oxadiazol-3-yl]phenyl]oxetane-3-carboxamide]
≥ 80%: pest or weed control at 200 ppm [1] | pest or weed control at 200 ppm [2] | inhibition of growth at 20 ppm [3] | pest or weed control at 200 ppm [4]

O=C(Nc1ccc(-c2noc(C(F)(F)F)n2)cc1)C1CC1F (stereo not shown) [Compound 1.111, 2-fluoro-N-[4-[5-(trifluoromethyl)-1,2,4-oxadiazol-3-yl]phenyl]cyclo-propanecarboxamide]
≥ 80%: pest or weed control at 200 ppm [1] | pest or weed control at 200 ppm [2] | inhibition of growth at 20 ppm [3] | pest or weed control at 200 ppm [4]

COC(C)C(=O)Nc1ccc(-c2noc(C(F)(F)F)n2)cc1 (stereo not shown) [Compound 1.112, 2-methoxy-N-[4-[5-(trifluoromethyl)-1,2,4-oxadiazol-3-yl]phenyl] propanamide]
≥ 80%: pest or weed control at 200 ppm [1] | pest or weed control at 200 ppm [2] | inhibition of growth at 20 ppm [3] | pest or weed control at 200 ppm [4]

O=C(Nc1ccc(-c2noc(C(F)(F)F)n2)cc1)C1CCOC1 (stereo not shown) [Compound 1.116, N-[4-[5-(trifluoromethyl)-1,2,4-oxadiazol-3-yl]phenyl] tetrahydrofuran-3-carboxamide]
≥ 80%: pest or weed control at 200 ppm [1] | inhibition of growth at 20 ppm [3] | pest or weed control at 200 ppm [4]

O=C(Nc1ccc(-c2noc(C(F)(F)F)n2)cc1)C1(F)CC1 [Compound 1.123, 1-fluoro-N-[4-[5-(trifluoromethyl)-1,2,4-oxadiazol-3-yl]phenyl]cyclo-propanecarboxamide]
≥ 80%: pest or weed control at 200 ppm [1] | pest or weed control at 200 ppm [2] | inhibition of growth at 20 ppm [3] | pest or weed control at 200 ppm [4]

CON(C)C(=O)N(C)c1ccc(-c2noc(C(F)(F)F)n2)cc1 [Compound 1.126, 1-methoxy-1,3-dimethyl-3-[4-[5-(trifluoromethyl)-1,2,4-oxadiazol-3-yl]phenyl]urea]
≥ 80%: pest or weed control at 200 ppm [1] | inhibition of growth at 20 ppm [3] | pest or weed control at 200 ppm [4]

CN(C(=O)C1CC1)c1ccc(-c2noc(C(F)(F)F)n2)cc1 [Compound 1.128, N-methyl-N-[4-[5-(trifluoromethyl)-1,2,4-oxadiazol-3-yl]phenyl]cyclo-propanecarboxamide]
≥ 80%: pest or weed control at 200 ppm [1] | pest or weed control at 200 ppm [2] | inhibition of growth at 20 ppm [3] | pest or weed control at 200 ppm [4]

COCC(=O)N(C)c1ccc(-c2noc(C(F)(F)F)n2)cc1 [Compound 1.129, 2-methoxy-N-methyl-N-[4-[5-(trifluoromethyl)-1,2,4-oxadiazol-3-yl]phenyl]acetamide]
≥ 80%: pest or weed control at 200 ppm [1] | inhibition of growth at 20 ppm [3] | pest or weed control at 200 ppm [4]

CN(C(=O)C1CCOC1)c1ccc(-c2noc(C(F)(F)F)n2)cc1 (stereo not shown) [Compound 1.135, N-methyl-N-[4-[5-(trifluoromethyl)-1,2,4-oxadiazol-3-yl]phenyl] tetrahydrofuran-3-carboxamide]
≥ 80%: pest or weed control at 200 ppm [1] | pest or weed control at 200 ppm [2] | inhibition of growth at 20 ppm [3]

COCCC(=O)N(C)c1ccc(-c2noc(C(F)(F)F)n2)cc1 [Compound 1.136, 3-methoxy-N-methyl-N-[4-[5-(trifluoromethyl)-1,2,4-oxadiazol-3-yl]phenyl] propanamide]
≥ 80%: pest or weed control at 200 ppm [1] | pest or weed control at 200 ppm [2] | inhibition of growth at 20 ppm [3]

CN(C(=O)C1(C)COC1)c1ccc(-c2noc(C(F)(F)F)n2)cc1 [Compound 1.139, N,3-dimethyl-N-[4-[5-(trifluoromethyl)-1,2,4-oxadiazol-3-yl]phenyl]oxetane-3-carboxamide]
≥ 80%: pest or weed control at 200 ppm [1] | pest or weed control at 200 ppm [2] | inhibition of growth at 20 ppm [3] | pest or weed control at 200 ppm [4]

COCCCC(=O)N(C)c1ccc(-c2noc(C(F)(F)F)n2)cc1 [Compound 1.140, 4-methoxy-N-methyl-N-[4-[5-(trifluoromethyl)-1,2,4-oxadiazol-3-yl]phenyl]butanamide]
≥ 80%: pest or weed control at 200 ppm [1] | pest or weed control at 200 ppm [2] | inhibition of growth at 20 ppm [3]

O=C(Nc1ccc(-c2noc(C(F)(F)F)n2)cc1)C1CC1 [Compound 2.15, N-[4-[5-(trifluoromethyl)-1,2,4-oxadiazol-3-yl]phenyl] cyclopropane-carboxamide]
≥ 80%: pest or weed control at 200 ppm [1] | inhibition of growth at 20 ppm [3] | pest or weed control at 200 ppm [4]

CC(=O)N(C)c1ccc(-c2noc(C(F)(F)F)n2)cc1 [Compound 2.18, N-methyl-N-[4-[5-(trifluoromethyl)-1,2,4-oxadiazol-3-yl]phenyl] acetamide]
≥ 80%: pest or weed control at 200 ppm [1] | inhibition of growth at 20 ppm [3] | pest or weed control at 200 ppm [4]

CON(C(=O)C1CC1)c1ccc(-c2noc(C(F)(F)F)n2)cc1 [Compound 2.27, N-methoxy-N-[4-[5-(trifluoromethyl)-1,2,4-oxadiazol-3-yl]phenyl] cyclopropane-carboxamide]
≥ 80%: pest or weed control at 200 ppm [1] | pest or weed control at 200 ppm [2] | inhibition of growth at 20 ppm [3]

Source: US20200022370A1, “MICROBIOCIDAL OXADIAZOLE DERIVATIVES” (SYNGENTA PARTICIPATIONS AG, priority 2016, published 2020)
